Assay [1] has as its system ribonuclear foci in MyoD transformed fibroblasts derived from DM1 patients (>300 CTG repeats). Description: FISH detection of aberrant ribonuclear foci in human DM1 fibroblasts. The class given is cell-based. The note with it: 24 h treatment, vs no treatment. On the procedure:
FIG. 1. Quantification of aberrant ribonuclear foci (DM1 disease hallmark) in human DM1 fibroblasts. Treatments with the compounds of Formula I were performed (VLT002, VLT015, VLT025, VLT024, VLT042, VLT040, VLT023, VLT026, VLT048, VLT045, VLT043, VLT049, VLT051 VLT053 and VLT056). (A) Number (medium) of foci/nuclei (No treatment vs. compound treatment). (B) Number of cells without foci (No treatment vs. compound treatment). n=100 minimum number of cells counted. T-Student test: * indicates p-value <0.05 ** p-value p<0.005 *** p-value p<0.0005.
After screening identification of the compounds of the invention (see FIG. 10), main validation was done using Fluorescence In Situ Hybridization (FISH) detection of aberrant aggregation of ribonuclear foci in cell lines from DM1 patients (see FIG. 1) and in DM1 Drosophila model (see FIG. 2) (Garcia-Lopez et al., Proc. Natl. Acad. Sci. USA. 108(29):11866-71 (2011)). Briefly, regarding human cells, it was used MyoD transformed fibroblasts derived from clinically diagnosed DM1 patients (>300 CTG repeats) routinely growing in DMEM supplemented with 10% heat-inactivated fetal bovine serum and maintained at 37° C. in a humidified incubator containing 5% CO2. To detect ribonuclear foci, cells were cultured over cover-slides in flat bottomed 24-well plates, after 24 h compounds of the invention were added to the cells at desiderate concentration, 24 h later in situ hybridization was done by fixing with 4% paraformaldehyde (PFA) 15 min at room temperature, and washed and stored in 70% ethanol. Cells were rehydrated with PBS and pre-hybridized 10 min at room temperature with a pre-hybridization buffer (formamide 30%, 2× saline-sodium citrate buffer (SSC)). Hybridization was performed in a light-proof wet chamber using the same pre-hybridization buffer supplemented with 0.02% bovine serum albumin (BSA), 1 mg/ml yeast tRNA (Sigma), 2 mM sodium (meta)vanadate, 1 mg/ml sperm DNA, 10% dextran sulfate and 1 ng/μl RNase free HPCL-purified Cy3-labeled (CAG)10 RNA. After hybridization cells were washed 2×15 minutes at 45° C. with the pre-hybridization buffer and washed with 1×PBS at room temperature. Slides were mounted with Vectashield solution with DAPI and number of foci by cell and number of cells with/without foci (see FIG. 1) were counted in a minimum of 100 cells for each treatment and concentration tested with a 63× objective in a Leica microscope. Same FISH approach was performed in Drosophila DM1 flies, where thoraces were embedded in OCT and transversal sections were taken with a Leica CM 15105 cryomicrotome. Sections were processed for in situ hybridization and counting for number of foci by cell with the same Cy3-labeled (CAG)10 probe (see FIG. 2).

Another assay relates to Serca1 exon 22 splicing. In words: Semi-quantitative RT-PCR of Serca1 splicing in HSA LR mouse skeletal muscle. It counts as in vivo. As to conditions: three days a/i. On the procedure: FIG. 8. Recovering of disease phenotypes (molecular, histological and functional) in in vivo DM1 mice (HSA^LR). Upper section: VLT002 and VLT025 suppressed splicing defects in DM1 mouse skeletal muscles. VLT002 (10 μg) and VLT025 (100 μg) were intramuscular injected in the right tibialis anterior (TA) and left quadriceps (Q), respectively, of HSA^LR mice that expressed 300 CTG repeats. […] All graphs show the mean and SEM from VLT002 and VLT025-responsive animals. Middle section: Immunofluorescent detection of trans-membrane Clcn1 protein (cell outlines in gray) in quadriceps sections of no-DM1 mouse (control) and HSA^LR mice without treatment (10150.5 QD-DMSO treated) and after VLT025 treatment (10150.5 QI).
Additional assays involved: • Reverse Transcription-PCR (RT-PCR) to detect levels of normal/aberrant splicing events in specific genes. […] Serca 1, Cypher or cTNNT genes reverse transcription were performed and quantification of normal/aberrant spliced band forms was obtained (ImageJ software) after running PCR products in 2% agarose gels. […] Muscle area was quantified (see FIG. 3) by binarizing images (equal dimensions) and quantifying pixels (%) within muscle tissue with ImageJ software. […] A minimum of 8 flies were analyzed in each case.

For a further assay, the system named is MBNL1. Description: Visualization and quantification of MBNL1 release in DM1 fibroblasts. The note with it: 100 μM. It counts as cell-based, human. On the procedure: FIG. 4. Visualization and quantification of MBNL1 release (A). Visualization of MBNL1 release for VLT002: Upper row: Untreated DM1 fibroblasts with MBNL1 localizing as ribonuclear foci (see dots in middle and right pictures) to the nucleus (DAPI, detected as gray spherical shadow in left and right pictures). […] (B) Quantification of the area (into the nucleus), where MBNL1 present (Photoshop software), reflects the MBNL1 release after VLT002, VLT025, VLT045, VLT049 and VLT040 treatment (100 μM).
At the same time human cells were recollected for foci counting. Some (150,000-300,000) were prepared for Muscleblind (MBNL1) detection (see FIG. 4). After PBS washes, cells were probed overnight, at 4° C. with anti-MBNL1 antibody (1:5000 dilutions, A2764 antibody) in 1×PBS. After washing cells with 1×PBS, cells were incubated with goat anti-rabbit Alexa 488 (1:500 dilution) for 2 h at RT. Cells were washed 2 times, for 10 min at room temperature with 1×PBS and then mounted onto glass slides using a hard-set mounting media that contains DAPI (Vectashield). Cells were imaged on a Leica microscope.

The subject of the next assay is (CUG)23 RNA hairpin. In words: 2-Aminopurine fluorescence assay of hairpin RNA unfolding. It counts as biochemical. As to conditions: for modification of the hairpin loops formed by the CUG repeats (2-AP fluorescence): (CUG)23 RNA, dose-range. As to the method:
FIG. 7. […] Measurements of the fluorescence emitted (Y-axis), measured as relative fluorescence units (RFU), by 2-aminopurine in a (CUG)23 RNA (1 μM) in the presence of different compounds (dose-range approach), relative to the fluorescence emitted by the free RNA. […] These effects were not observed when incubating the RNA with DMSO (not shown), or with the small molecule pentamidine, published as a compound able to disrupt MBNL1 binding to CUG hairpins (Warf M B et al. Proc. Natl. Acad. Sci. USA 106:18551-56 (2009)). * indicates p-value <0.05 ** p-value <0.005 *** p-value p<0.0005.
Aminopurine Fluorescence assay to detect hairpin double strand RNA unfolding. An aliquot of 2-aminopurine (2AP)-CUG23 RNA (1 μM in binding buffer) was heated at 90° C. for 3 min, placed on ice, and further diluted to 30 nM in a final volume of 1 mL in binding buffer.

Two compounds from US20160194274A1, “PHENANTHRENE DERIVATIVES FOR USE AS MEDICAMENTS” (VALENTIA BIOPHARMA, priority 2012, published 2016) can be followed below.

Entries after “also recorded” stand apart in the source; their conditions may differ.

`CN(C)CCc1cc2c(c3c1ccc1ccccc13)OCO2` [VLT002, Stephenanthrine]: in assay [1], the “aberrant ribonuclear foci: number of foci/nuclei (A) and/or number of cells without foci (B)” value was “significant reduction”. For the same compound, the “splicing defects (exon 22) of Serca1” value in the assay with Serca1 exon 22 splicing (10 μg intramuscular, right tibialis anterior) is listed as “partially reversed splicing defects”. Further, in the assay with MBNL1, the “MBNL1 sequestration / MBNL1 release (nuclear area where MBNL1 present)” value was “MBNL1 sequestration is relieved; also recorded: relieve MBNL1 sequestration” and the “formation of foci (MBNL1 ribonuclear foci)” value was “reduced formation of the foci; also recorded: effectively reduce the formation of foci”. Moreover, in the assay on (CUG)23 RNA hairpin, the “modification of the hairpin loops formed by the CUG repeats (2-AP fluorescence)” value was “modify the hairpin loops”.
As for `C[N+](C)(C)CCc1cc2c(c3c1ccc1ccccc13)OCO2` [VLT025], the “aberrant ribonuclear foci: number of foci/nuclei (A) and/or number of cells without foci (B)” value in assay [1] was “significant reduction”. Besides, the “splicing defects (exon 22) of Serca1” value in the assay on Serca1 exon 22 splicing (100 μg intramuscular, left quadriceps) is “partially reversed splicing defects”. Besides, in the assay on MBNL1, the “MBNL1 sequestration / MBNL1 release (nuclear area where MBNL1 present)” value is “relieve MBNL1 sequestration” and the “formation of foci (MBNL1 ribonuclear foci)” value is “effectively reduce the formation of foci”. Besides, the “modification of the hairpin loops formed by the CUG repeats (2-AP fluorescence)” value in the assay with (CUG)23 RNA hairpin is on record as “modify the hairpin loops”. Besides, in the assay on (CUG)23 RNA hairpin (change to more structured double-stranded), the “decreases in the fluorescence of 2-AP” value was “noteworthy decreases”.
